Laboratory results as given in publication PMC4256047, “Structural and Functional Profiling of Environmental Ligands for Estrogen Receptors” (Environmental Health Perspectives, 2014).
Primed or numbered codes have the meaning given here. Where no end group is shown, it is not given here. fluorescein″ = fluorescein label on the peptide (N-terminal, fluorescein-labeled peptide)

Experiments:
wild-type ERβ LBD = wild-type ERβ LBD (Homo sapiens, UniProt Q92731); test: fluorescence anisotropy, SRC-1 NR2 peptide recruitment by ERβ LBD; conditions: class from Kd of SRC-1 peptide for ERβ LBD
wild-type ERβ LBD, sequence (Q92731 261-502): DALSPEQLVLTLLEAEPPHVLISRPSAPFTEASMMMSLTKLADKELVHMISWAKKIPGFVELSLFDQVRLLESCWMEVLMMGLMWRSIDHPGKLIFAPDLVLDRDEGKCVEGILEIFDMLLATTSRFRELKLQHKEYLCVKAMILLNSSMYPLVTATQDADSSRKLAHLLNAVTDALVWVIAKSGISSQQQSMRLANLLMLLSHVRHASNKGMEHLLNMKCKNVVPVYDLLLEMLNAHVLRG

human ERβ = human ERβ (Homo sapiens, UniProt Q92731); test: HGELN-ERβ luciferase transactivation assay; conditions: full-length receptor
human ERβ, sequence (Q92731 whole entry, the tested form may be a part): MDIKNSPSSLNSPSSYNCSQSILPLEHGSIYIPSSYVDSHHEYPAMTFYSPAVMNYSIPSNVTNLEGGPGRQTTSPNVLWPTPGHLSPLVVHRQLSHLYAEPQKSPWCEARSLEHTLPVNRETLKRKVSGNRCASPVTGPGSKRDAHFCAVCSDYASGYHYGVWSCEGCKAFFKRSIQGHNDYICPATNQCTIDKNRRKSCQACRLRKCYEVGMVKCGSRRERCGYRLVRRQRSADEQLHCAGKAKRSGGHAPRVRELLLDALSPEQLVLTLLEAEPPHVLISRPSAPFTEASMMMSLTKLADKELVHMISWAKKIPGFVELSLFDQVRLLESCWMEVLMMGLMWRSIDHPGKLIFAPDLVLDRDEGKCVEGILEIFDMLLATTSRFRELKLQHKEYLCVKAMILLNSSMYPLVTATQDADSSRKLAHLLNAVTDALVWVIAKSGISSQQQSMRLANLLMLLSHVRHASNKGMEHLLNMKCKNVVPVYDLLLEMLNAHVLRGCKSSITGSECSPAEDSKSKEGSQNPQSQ

wild-type ERα LBD = target: T1, wild-type ERα LBD (Homo sapiens, UniProt P03372); test: fluorescence anisotropy, SRC-1 NR2 peptide recruitment by ERα LBD; conditions: class from Kd of SRC-1 peptide for ERα LBD
T1 sequence (P03372 302-552): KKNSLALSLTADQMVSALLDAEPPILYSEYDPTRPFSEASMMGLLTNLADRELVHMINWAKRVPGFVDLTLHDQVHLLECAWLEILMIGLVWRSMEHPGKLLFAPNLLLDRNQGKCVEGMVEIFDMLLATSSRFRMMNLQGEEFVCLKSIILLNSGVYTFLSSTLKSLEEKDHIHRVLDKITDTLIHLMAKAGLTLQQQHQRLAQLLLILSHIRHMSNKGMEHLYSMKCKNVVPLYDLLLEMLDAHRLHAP

human ERα = target: T2, human ERα (Homo sapiens, UniProt P03372); test: HGELN-ERα luciferase transactivation assay; conditions: for relative activation of the two ER subtypes: HGELN-ERα versus HGELN-ERβ, full-length receptors; for agonistic potential in words, FL-ERα: HGELN-ERα, full-length receptor
T2 sequence (P03372 1-595): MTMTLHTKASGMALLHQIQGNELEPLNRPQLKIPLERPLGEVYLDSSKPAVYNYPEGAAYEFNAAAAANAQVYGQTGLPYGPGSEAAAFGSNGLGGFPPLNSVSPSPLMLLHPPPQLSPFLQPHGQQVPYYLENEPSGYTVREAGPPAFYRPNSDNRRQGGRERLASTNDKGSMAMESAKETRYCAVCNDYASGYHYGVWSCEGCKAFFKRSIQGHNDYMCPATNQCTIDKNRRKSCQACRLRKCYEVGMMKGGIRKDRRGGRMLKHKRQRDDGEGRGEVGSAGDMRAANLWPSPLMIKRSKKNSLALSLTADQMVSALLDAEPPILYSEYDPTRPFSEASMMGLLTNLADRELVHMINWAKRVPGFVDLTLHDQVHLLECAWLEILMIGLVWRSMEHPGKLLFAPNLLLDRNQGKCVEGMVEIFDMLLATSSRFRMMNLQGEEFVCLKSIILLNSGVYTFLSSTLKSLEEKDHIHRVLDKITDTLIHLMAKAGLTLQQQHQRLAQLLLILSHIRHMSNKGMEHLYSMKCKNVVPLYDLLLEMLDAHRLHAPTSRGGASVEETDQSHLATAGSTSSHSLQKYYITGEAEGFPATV

ΔAB-ERβ = test: HGELN-ΔAB-ERβ luciferase transactivation assay
ΔAB-ERα = test: HGELN-ΔAB-ERα luciferase transactivation assay
ER = system: ER; set-up: method as in Wilson et al. 2004; conditions: ref Wilson et al. 2004; cited from earlier work
[1] = target: T3, wt-ERβ LBD (wild-type estrogen receptor β ligand-binding domain, amino acids 261–502) (human, UniProt Q92731 261-502); test: fluorescence polarisation; fluorescence anisotropy as a1, with α-ZA at 2 molar equivalents of the highest protein concentration; conditions: both partners purified
T3 construct: also called wild-type ERβ LBD; apo-ERβ
T3 sequence (Q92731 261-502): as the sequence (Q92731 261-502) above

[2] = target: T4, wt-ERα LBD (wild-type estrogen receptor α ligand-binding domain, amino acids 302–552) (human, UniProt P03372 302-552); test: as above; conditions: both partners purified
T4 construct: also called wild-type ERα LBD; apo-ERα
T4 sequence (looked up): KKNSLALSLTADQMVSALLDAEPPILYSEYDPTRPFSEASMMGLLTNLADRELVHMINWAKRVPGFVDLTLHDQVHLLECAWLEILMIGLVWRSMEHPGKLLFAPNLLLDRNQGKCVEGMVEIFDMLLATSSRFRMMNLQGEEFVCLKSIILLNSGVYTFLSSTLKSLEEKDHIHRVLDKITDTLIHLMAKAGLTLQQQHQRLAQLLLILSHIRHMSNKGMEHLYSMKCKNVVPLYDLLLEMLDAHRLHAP

[3] = target: T3, wt-ERβ LBD (wild-type estrogen receptor …); test: fluorescence polarisation; fluorescence anisotropy as a1, with BP-2 at 2 molar equivalents of the highest protein concentration; conditions: both partners purified
[4] = target: T4, wt-ERα LBD (wild-type estrogen receptor …); test: fluorescence polarisation; fluorescence anisotropy as a1, with 4-OP at 2 molar equivalents of the highest protein concentration; conditions: both partners purified

## CC(C)(C)CC(C)(C)c1ccc(O)cc1 [4-OP, 4-tert-octylphenol]
wild-type ERβ LBD
  ligand class by SRC-1 peptide recruitment, ERβ: partial agonists (partial agonists (1 μM ≤ Kd ≤ values for apo-ERα or -ERβ))

## O=C(c1ccc(O)cc1O)c1ccc(O)cc1O [BP-2, benzophenone-2]
Human ERβ
  agonistic potential in words, FL-ERβ: full agonist
wild-type ERβ LBD
  ligand class by SRC-1 peptide recruitment, ERβ: strong agonists (strong agonists (Kd ≤ 1 μM))
wild-type ERα LBD
  ligand class by SRC-1 peptide recruitment, ERα: strong agonists (strong agonists (Kd ≤ 1 μM))
Human ERα
  relative activation of the two ER subtypes: activated the two ER subtypes equally
  agonistic potential in words, FL-ERα: full agonist
ΔAB-ERβ
  agonistic potential in words, ΔAB-ERβ: full agonist
ΔAB-ERα; HGELN-ΔAB-ERα
  agonistic potential in words, ΔAB-ERα: full agonist
ΔAB-ERα; full-length versus ΔAB (AF-1 deleted) ERs
  AF-1 dependence of activity: fully AF-1–independent activity

## CC(C)(c1ccc(O)cc1)c1ccc(O)cc1 [BPA, bisphenol A]
wild-type ERβ LBD
  ligand class by SRC-1 peptide recruitment, ERβ: partial agonists (partial agonists (1 μM ≤ Kd ≤ values for apo-ERα or -ERβ))
wild-type ERα LBD
  ligand class by SRC-1 peptide recruitment, ERα: partial agonists (partial agonists (1 μM ≤ Kd ≤ values for apo-ERα or -ERβ))

## Oc1ccc(C(=C(Cl)Cl)c2ccc(O)cc2)cc1 [BPC, bisphenol C]
Human ERα
  relative activation of the two ER subtypes: activated ERα more efficiently than ERβ

## CCCCOC(=O)c1ccc(O)cc1 [Butylparaben, butylparaben]
wild-type ERβ LBD
  ligand class by SRC-1 peptide recruitment, ERβ: partial agonists (partial agonists (1 μM ≤ Kd ≤ values for apo-ERα or -ERβ))

## ClC(Cl)=C(c1ccc(Cl)cc1)c1ccc(Cl)cc1 [DDE, dichlorodiphenyldichloroethylene]
wild-type ERα LBD
  ligand class by SRC-1 peptide recruitment, ERα: partial agonists (partial agonists (1 μM ≤ Kd ≤ values for apo-ERα or -ERβ))

## Oc1ccc(C(c2ccc(O)cc2)C(Cl)(Cl)Cl)cc1 [HPTE, 2,2-bis(p-hydroxyphenyl)-1,1,1-trichloroethane]
ER
  ER activity reported in other studies: agonistic properties

## CC(C)(c1cc(Cl)c(O)c(Cl)c1)c1cc(Cl)c(O)c(Cl)c1 [TCBPA, tetrachlorobisphenol A]
Human ERβ
  agonistic potential in words, FL-ERβ: ERβ antagonists
ΔAB-ERβ
  agonistic potential in words, ΔAB-ERβ: ERβ antagonists

## C[C@H]1CCC[C@H](O)CCCCCc2cc(O)cc(O)c2C(=O)O1 [α-ZA, α-zearalanol]
wild-type ERα LBD
  ligand class by SRC-1 peptide recruitment, ERα: strong agonists (strong agonists (Kd ≤ 1 μM))
Human ERα
  agonistic potential in words, FL-ERα: efficiently activated

B1: fluorescein-RHKILHRLLQEGS peptide corresponding to the NR box 2-binding motif of SRC-1 (peptide)
peptide: {fluorescein″}-RHKILHRLLQEGS
notes: also called fluorescein-labeled SRC-1 NR2 peptide; SRC-1 NR2 peptide; source: synthetic peptide, bought: EZbiolab
[1]
  Kd: ≥ 1000 nM
[2]
  Kd: ≤ 1000 nM
[3]
  Kd: ≤ 1000 nM
[4]
  Kd: ≥ 1000 nM
